Experimental data reported in patent US11390609B2, “Rho-associated protein kinase inhibitor, pharmaceutical composition comprising same, and preparation method and use thereof” (BEIJING TIDE PHARMACEUTICAL CO., LTD., priority 2017, dated 2022).
pIC50: −log10 of the molar value.

Columns and labels:
ROCK1 = ROCK1 (Homo sapiens (Human), UniProt Q13464); test: ROCK1 kinase IC50 assay (biological test method similar to the ROCK2 assay); format: biochemical
In short: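 Compound dilution series (9 concentrations, top solution 10000 nM, DMSO-containing buffer) incubated 2 h at room temperature with kinase, STK-S2 substrate and ATP (5× working solutions of 1.5 µM each). Phosphorylation detected by HTRF (665/615 nm emission ratio) after 1 h; inhibition relative to full-reaction and kinase-free wells, fitted for IC50.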

ROCK2 = ROCK2 (Homo sapiens, UniProt O75116); test: ROCK2 kinase IC50 assay (CISBIO HTRF KinEASE-STK S2 kit); format: biochemical; conditions: incubated at room temperature for 2 hours
In short: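 HTRF KinEASE-STK S2 format with recombinant ROCK2 (1.4 ng per well), STK-S2 substrate and ATP from 5× working solutions of 1.5 μM each, run 2 h at room temperature. Nine-point dilutions from 10000 nM top concentration; 665/615 nm emission ratio normalised to no-compound and no-kinase controls, curve-fitted for IC50.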

Chain of ROCK1 (Q13464 whole entry, species assumed): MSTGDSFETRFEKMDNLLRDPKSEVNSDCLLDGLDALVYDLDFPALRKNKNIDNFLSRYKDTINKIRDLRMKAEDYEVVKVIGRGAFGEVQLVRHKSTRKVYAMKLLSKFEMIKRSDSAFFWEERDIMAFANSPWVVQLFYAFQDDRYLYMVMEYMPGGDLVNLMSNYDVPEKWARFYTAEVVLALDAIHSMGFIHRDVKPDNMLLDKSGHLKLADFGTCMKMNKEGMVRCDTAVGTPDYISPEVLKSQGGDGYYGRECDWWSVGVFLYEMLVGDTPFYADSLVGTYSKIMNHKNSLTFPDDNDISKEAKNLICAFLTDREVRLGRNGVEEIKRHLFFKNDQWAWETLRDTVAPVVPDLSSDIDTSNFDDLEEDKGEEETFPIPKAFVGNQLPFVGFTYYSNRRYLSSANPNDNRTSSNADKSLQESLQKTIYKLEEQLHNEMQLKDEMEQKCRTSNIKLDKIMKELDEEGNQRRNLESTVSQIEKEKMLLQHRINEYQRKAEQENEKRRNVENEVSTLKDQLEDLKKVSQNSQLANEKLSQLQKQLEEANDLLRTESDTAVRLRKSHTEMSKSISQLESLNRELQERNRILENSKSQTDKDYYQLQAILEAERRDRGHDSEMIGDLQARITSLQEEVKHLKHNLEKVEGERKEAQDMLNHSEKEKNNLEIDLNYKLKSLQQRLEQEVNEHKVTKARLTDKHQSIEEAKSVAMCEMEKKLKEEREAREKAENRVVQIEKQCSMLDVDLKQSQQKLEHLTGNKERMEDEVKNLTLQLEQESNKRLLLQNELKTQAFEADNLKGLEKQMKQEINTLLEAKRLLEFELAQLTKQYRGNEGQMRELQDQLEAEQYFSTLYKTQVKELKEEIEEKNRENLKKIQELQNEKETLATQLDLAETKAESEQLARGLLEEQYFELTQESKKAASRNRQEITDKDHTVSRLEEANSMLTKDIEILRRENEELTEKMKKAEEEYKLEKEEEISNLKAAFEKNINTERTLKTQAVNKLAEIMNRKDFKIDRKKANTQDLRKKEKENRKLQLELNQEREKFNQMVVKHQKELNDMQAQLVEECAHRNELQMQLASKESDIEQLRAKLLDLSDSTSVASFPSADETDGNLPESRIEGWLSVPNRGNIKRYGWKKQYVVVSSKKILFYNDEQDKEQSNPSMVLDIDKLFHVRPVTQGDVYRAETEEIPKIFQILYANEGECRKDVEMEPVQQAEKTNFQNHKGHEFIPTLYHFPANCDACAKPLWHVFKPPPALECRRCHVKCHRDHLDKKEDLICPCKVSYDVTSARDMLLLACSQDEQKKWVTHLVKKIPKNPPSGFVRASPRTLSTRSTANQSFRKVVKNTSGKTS

Row | Compound | pIC50 (ROCK1) | pIC50 (ROCK2)
1 | O=C(C1CC(F)(F)C1)N1CCc2cc(-c3ncc(F)c(Nc4ccc(-c5cn[nH]c5)cc4)n3)ccc2C1 [TDI01596, (6-(4-((4-(1H-pyrazol-4-yl)phenyl)amino)-5-fluoropyrimidin-2-yl)-3,4-dihydroisoquinolin-2(1H)-yl)(3,3-difluorocyclobutyl)methanone] | < 5.00 | 6.56
2 | O=C(c1cc2ccc(-c3ncnc(Nc4ccc(-c5cn[nH]c5)cc4)n3)cc2[nH]1)N1CC(F)(F)C1 [TDI01581, (6-(4-((4-(1H-pyrazol-4-yl)phenyl)amino)-1,3,5-triazin-2-yl)-1H-indol-2-yl)(3,3-difluoroazetidin-1-yl)methanone] | < 5.00 | 7.55
3 | O=C(c1cc2ccc(-c3nccc(Nc4ccc(-c5cn[nH]c5)cc4)n3)cc2[nH]1)N1CCC(F)(F)C1 [TDI01463, (6-(4-((4-(1H-pyrazol-4-yl)phenyl)amino)pyrimidin-2-yl)-1H-indol-2-yl)(3,3-difluoropyrrolidin-1-yl)methanone] | < 5.00 | 7.96
4 | O=C(C1CC(F)(F)C1)N1Cc2ccc(-c3ncnc(Nc4ccc(-c5cn[nH]c5)cc4)n3)cc2C1 [TDI01536, (5-(4-((4-(1H-pyrazol-4-yl)phenyl)amino)-1,3,5-triazin-2-yl)isoindolin-2-yl)(3,3-difluorocyclobutyl)methanone] | < 5.00 | 6.98
5 | COc1cnc(-c2ccc3cc(C(=O)N4CC(F)(F)C4)n(C)c3c2)nc1Nc1ccc(-c2cn[nH]c2)cc1 [TDI01915, (6-(4-((4-(1H-pyrazol-4-yl)phenyl)amino)-5-methoxypyrimidin-2-yl)-1-methyl-1H-indol-2-yl)(3,3-difluoroazetidin-1-yl)methanone] | < 5.00 | 7.74
6 | CN1CCc2nc(C(=O)N3Cc4ccc(-c5nccc(Nc6ccc(-c7cn[nH]c7)cc6)n5)cc4C3)sc2C1 [TDI01973, (5-(4-((4-(1H-pyrazol-4-yl)phenyl)amino)pyrimidin-2-yl)isoindolin-2-yl)(5-methyl-4,5,6,7-tetrahydrothiazolo[5,4-c]pyridin-2-yl)methanone] | < 5.00 | 7.28
7 | Cn1c(C(=O)N2CC(F)(F)C2)cc2ccc(-c3nc(Nc4ccc(-c5cn[nH]c5)cc4)c4c(n3)OCCO4)cc21 [TDI01851, (6-(4-((4-(1H-pyrazol-4-yl)phenyl)amino)-6,7-dihydro-[1,4]dioxino[2,3-d]pyrimidin-2-yl)-1-methyl-1H-indol-2-yl)(3,3-difluoroazetidin-1-yl)methanone] | < 5.00 | 7.82
8 | O=C(c1cc2ccc(-c3nccc(Nc4ccc(-c5cn[nH]c5)cc4)n3)cc2[nH]1)N1CC(=NO)C1 [TDI01498, (6-(4-((4-(1H-pyrazol-4-yl)phenyl)amino)pyrimidin-2-yl)-1H-indol-2-yl)(3-(hydroxyimino)azetidin-1-yl)methanone] | < 5.00 | 6.38
9 | Cn1c(C(=O)N2CCC(C(F)(F)F)C2)cc2ccc(-c3nccc(Nc4ccc(-c5cn[nH]c5)cc4)n3)cc21 (stereo not shown) [TDI01506, (6-(4-((4-(1H-pyrazol-4-yl)phenyl)amino)pyrimidin-2-yl)-1-methyl-1H-indol-2-yl)(3-(trifluoromethyl)pyrrolidin-1-yl) methanone] | 5.14 | 6.53
10 | Cn1c(C(=O)N2CC(F)(F)C2)cc2ccc(-c3nc(Nc4ccc(-c5cn[nH]c5)cc4)c4ccsc4n3)cc21 [TDI01947, (6-(4-((4-(1H-pyrazol-4-yl)phenyl)amino)thieno[2,3-d]pyrimidin-2-yl)-1-methyl-1H-indol-2-yl)(3,3-difluoroazetidin-1-yl)methanone] | < 5.00 | 7.06
11 | O=C(Nc1ccncc1Cl)N1Cc2ccc(-c3nccc(Nc4ccc5[nH]ncc5c4)n3)cc2C1 [TDI01374, 5-(4-((1H-indazol-5-yl)amino)pyrimidin-2-yl)-N-(3-chloropyridin-4-yl)isoindoline-2-carboxamide] | < 5.00 | 7.19
12 | O=C(O)c1cnc(-c2ccc3c(c2)CN(C(=O)C2CC(F)(F)C2)C3)nc1Nc1ccc(-c2cn[nH]c2)cc1 [TDI01567C] | < 5.00 | 7.54
13 | Cn1c(C(=O)N2CC(=CC#N)C2)cc2ccc(-c3nccc(Nc4ccc(-c5cn[nH]c5)cc4)n3)cc21 [TDI01515, 2-(1-(6-(4-((4-(1H-pyrazol-4-yl)phenyl)amino)pyrimidin-2-yl)-1-methyl-1H-indole-2-carbonyl)azetidin-3-ylidene) acetonitrile] | 5.16 | 6.96
14 | O=C(OC1CCC(F)(F)CC1)N1CCc2cc(-c3nccc(Nc4ccc(-c5cn[nH]c5)cc4)n3)ccc2C1 [TDI01656, 4,4-difluorocyclohexyl 6-(4-((4-(1H-pyrazol-4-yl)phenyl)amino)pyrimidin-2-yl)-3,4-dihydroisoquinoline-2(1H)-carboxylate] | < 5.00 | 6.35
15 | O=C(Nc1ccncc1Cl)c1cc2ccc(-c3nccc(Nc4ccc5[nH]ncc5c4)n3)cc2s1 [TDI01372, 6-(4-((1H-indazol-5-yl)amino)-pyrimidin-2-yl)-N-(3-chloropyridin-4-yl)benzo[b]-thiophene-2-carboxamide] | < 5.00 | 6.91

Other lines, results leading:

Row | pIC50 (ROCK1) | pIC50 (ROCK2) | Compound
16 | 6.80 | 8.22 | CC(NC(=O)c1cc2ccc(-c3nccc(Nc4ccc(-c5cn[nH]c5)cc4)n3)cc2n1C)C(F)(F)F (stereo not shown) [TDI01691]
17 | 5.69 | 7.80 | O=C(OC1CC2(CNC2)C1)N1Cc2ccc(-c3nccc(Nc4ccc(-c5cn[nH]c5)cc4)n3)cc2C1 [TDI01634, 2-azaspiro[3.3]heptan 6-yl 5-(4-((4-(1H-pyrazol-4-yl)phenyl)amino)pyrimidin-2-yl)isoindoline-2-carboxylate]
18 | 5.17 | 6.58 | O=C(c1cc2ccc(-c3nccc(Nc4ccc(-c5cn[nH]c5)cc4)n3)cc2[nH]1)N1CC2(CNC2)C1 [TDI01369, (6-(4-((4-(1H-pyrazol-4-yl)phenyl)-amino)-pyrimidin-2-yl)-1H-indol-2-yl)(2,6-diazaspiro[3.3]heptan-2-yl)methanone]
19 | 5.22 | 6.95 | c1ccc2oc(-c3cc4ccc(-c5nccc(Nc6ccc7[nH]ncc7c6)n5)cc4[nH]3)nc2c1 [TDI01816, N-(2-(2-(benzo[d]oxazol-2-yl)-1H-indol-6-yl]pyrimidin-4-yl)-1H-indazol-5-amine]
20 | 5.36 | 6.69 | CC1COCCN1C(=O)c1cc2ccc(-c3nccc(Nc4ccc(-c5cn[nH]c5)cc4)n3)cc2[nH]1 (stereo not shown) [TDI01431, (6-(4-((4-(1H-pyrazol-4-yl)phenyl)amino)pyrimidin-2-yl)-1H-indol-2-yl)(3-methylmorpholino) methanone]
21 | 5.53 | 7.29 | CN1CCC(OC(=O)N2Cc3ccc(-c4nccc(Nc5ccc(-c6cn[nH]c6)cc5)n4)cc3C2)C1 (stereo not shown) [TDI01552, 1-methylpyrrolidin-3-yl5-(4-((4-(1H-pyrazol-4-yl)phenyl)amino)pyrimidin-2-yl)isoindoline-2-carboxylate]
22 | 5.25 | 6.40 | 5-(4-((4-(1H-pyrazol-4- yl)phenyl)amino)pyrimidin- 2-yl)-N,N-diethyl-1H- indole-2-carboxamide [TDI01408]
23 | 5.52 | 7.89 | N#CC1CCN(C(=O)c2cc3ccc(-c4nccc(Nc5ccc(-c6cn[nH]c6)cc5)n4)cc3[nH]2)C1 (stereo not shown) [TDI01448, 1-(6-(4-((4-(1H-pyrazol-4-yl)phenyl)amino)pyrimidin-2-yl)-1H-indole-2-carbonyl)pyrrolidine-3-carbonitrile]
